Data published in PubChem BioAssay (NCI).
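Method: 48-hour compound exposure of cells in 96-well plates, five concentrations, linear interpolation of endpoints. Abbreviation: GI50, concentration required for 50% inhibition of growth. TGI is the concentration that stops growth completely.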

What was measured:
Assay in all cases: DTP human tumour cell line panel, 48 h
786-0 renal = test system: 786-0 renal
A498 renal = test system: A498 renal
A549 NSCLC = test system: A549 NSCLC
ACHN renal = test system: ACHN renal
BT-549 breast = test system: BT-549 breast
CAKI-1 renal = test system: CAKI-1 renal
CCRF-CEM leukemia = test system: CCRF-CEM leukemia
COLO 205 colon = test system: COLO 205 colon
DU-145 prostate = test system: DU-145 prostate
EKVX NSCLC = test system: EKVX NSCLC
HCC-2998 colon = test system: HCC-2998 colon
HCT-116 colon = test system: HCT-116 colon
HCT-15 colon = test system: HCT-15 colon
HL-60(TB) leukemia = test system: HL-60(TB) leukemia
HOP-62 NSCLC = test system: HOP-62 NSCLC
HOP-92 NSCLC = test system: HOP-92 NSCLC
HS 578T breast = test system: HS 578T breast
HT29 colon = test system: HT29 colon
IGROV1 ovarian = test system: IGROV1 ovarian
K-562 leukemia = test system: K-562 leukemia
KM12 colon = test system: KM12 colon
LOX IMVI melanoma = test system: LOX IMVI melanoma
M14 melanoma = test system: M14 melanoma
MALME-3M melanoma = test system: MALME-3M melanoma
MCF7 breast = test system: MCF7 breast
MDA-MB-231 breast = test system: MDA-MB-231 breast
MDA-MB-435 = test system: MDA-MB-435
MDA-MB-468 breast = test system: MDA-MB-468 breast
MOLT-4 leukemia = test system: MOLT-4 leukemia
NCI-H226 lung = test system: NCI-H226 lung
NCI-H23 lung = test system: NCI-H23 lung
NCI-H460 lung = test system: NCI-H460 lung
NCI-H522 lung = test system: NCI-H522 lung
NCI/ADR-RES ovarian = test system: NCI/ADR-RES ovarian
OVCAR-3 ovarian = test system: OVCAR-3 ovarian
OVCAR-4 ovarian = test system: OVCAR-4 ovarian
OVCAR-5 ovarian = test system: OVCAR-5 ovarian
OVCAR-8 ovarian = test system: OVCAR-8 ovarian
PC-3 prostate = test system: PC-3 prostate
RPMI-8226 leukemia = test system: RPMI-8226 leukemia
RXF 393 renal = test system: RXF 393 renal
SF-268 CNS = test system: SF-268 CNS
SF-295 CNS = test system: SF-295 CNS
SF-539 CNS = test system: SF-539 CNS
SK-MEL-2 melanoma = test system: SK-MEL-2 melanoma
SK-MEL-28 melanoma = test system: SK-MEL-28 melanoma
SK-MEL-5 melanoma = test system: SK-MEL-5 melanoma
SK-OV-3 ovarian = test system: SK-OV-3 ovarian
SN12C renal = test system: SN12C renal
SNB-19 CNS = test system: SNB-19 CNS
SNB-75 CNS = test system: SNB-75 CNS
SR leukemia = test system: SR leukemia
T-47D breast = test system: T-47D breast
TK-10 renal = test system: TK-10 renal
U251 CNS = test system: U251 CNS
UACC-257 melanoma = test system: UACC-257 melanoma
UACC-62 melanoma = test system: UACC-62 melanoma
UO-31 renal = test system: UO-31 renal

Structure (SMILES): CC1=C2C(=C[C@@](C)(COCOCCCl)[C@@H]2O)C(=O)[C@](C)(O)C12CC2
- GI50 (786-0 renal): 0.638 µM
- TGI (786-0 renal): 1.98 µM
- GI50 (A498 renal): 1.61 µM
- TGI (A498 renal): 4.99 µM
- GI50 (A549 NSCLC): 0.322 µM
- TGI (A549 NSCLC): 6.86 µM
- GI50 (ACHN renal): 0.0554 µM
- TGI (ACHN renal): 0.387 µM
- GI50 (BT-549 breast): 0.243 µM
- TGI (BT-549 breast): 0.786 µM
- GI50 (CAKI-1 renal): 0.263 µM
- TGI (CAKI-1 renal): 2.1 µM
- GI50 (CCRF-CEM leukemia): 0.626 µM
- TGI (CCRF-CEM leukemia): > 33.8 µM
- GI50 (COLO 205 colon): 0.258 µM
- TGI (COLO 205 colon): 0.924 µM
- GI50 (DU-145 prostate): 0.142 µM
- TGI (DU-145 prostate): 1.51 µM
- GI50 (EKVX NSCLC): 0.285 µM
- TGI (EKVX NSCLC): 0.87 µM
- GI50 (HCC-2998 colon): 0.199 µM
- TGI (HCC-2998 colon): 0.495 µM
- GI50 (HCT-116 colon): 0.128 µM
- TGI (HCT-116 colon): > 41.5 µM
- GI50 (HCT-15 colon): 0.0644 µM
- TGI (HCT-15 colon): 2.55 µM
- GI50 (HL-60(TB) leukemia): 0.126 µM
- TGI (HL-60(TB) leukemia): 2.13 µM
- GI50 (HOP-62 NSCLC): 0.344 µM
- TGI (HOP-62 NSCLC): 1.88 µM
- GI50 (HOP-92 NSCLC): 0.248 µM
- TGI (HOP-92 NSCLC): 0.685 µM
- GI50 (HS 578T breast): 0.598 µM
- TGI (HS 578T breast): 4 µM
- GI50 (HT29 colon): 0.174 µM
- GI50 (IGROV1 ovarian): 0.229 µM
- TGI (IGROV1 ovarian): 0.961 µM
- GI50 (K-562 leukemia): 0.445 µM
- TGI (K-562 leukemia): > 100 µM
- GI50 (KM12 colon): 0.35 µM
- TGI (KM12 colon): 4.83 µM
- GI50 (LOX IMVI melanoma): 0.137 µM
- TGI (LOX IMVI melanoma): 0.493 µM
- GI50 (M14 melanoma): 0.285 µM
- TGI (M14 melanoma): 0.99 µM
- GI50 (MALME-3M melanoma): 0.229 µM
- TGI (MALME-3M melanoma): 0.509 µM
- GI50 (MCF7 breast): 0.045 µM
- TGI (MCF7 breast): 3.18 µM
- GI50 (MDA-MB-231 breast): 0.294 µM
- TGI (MDA-MB-231 breast): 1.03 µM
- GI50 (MDA-MB-435): 0.322 µM
- TGI (MDA-MB-435): 1.09 µM
- GI50 (MDA-MB-468 breast): 0.123 µM
- TGI (MDA-MB-468 breast): 0.299 µM
- GI50 (MOLT-4 leukemia): 0.141 µM
- TGI (MOLT-4 leukemia): > 48.3 µM
- GI50 (NCI-H226 lung): 0.845 µM
- TGI (NCI-H226 lung): 4.01 µM
- GI50 (NCI-H23 lung): 0.105 µM
- TGI (NCI-H23 lung): 0.304 µM
- GI50 (NCI-H460 lung): 0.113 µM
- TGI (NCI-H460 lung): 0.656 µM
- GI50 (NCI-H522 lung): 0.184 µM
- TGI (NCI-H522 lung): 0.495 µM
- GI50 (NCI/ADR-RES ovarian): 0.16 µM
- TGI (NCI/ADR-RES ovarian): 0.438 µM
- GI50 (OVCAR-3 ovarian): 0.265 µM
- TGI (OVCAR-3 ovarian): 0.765 µM
- GI50 (OVCAR-4 ovarian): 0.265 µM
- TGI (OVCAR-4 ovarian): 0.86 µM
- GI50 (OVCAR-5 ovarian): 0.178 µM
- TGI (OVCAR-5 ovarian): 1.07 µM
- GI50 (OVCAR-8 ovarian): 0.211 µM
- TGI (OVCAR-8 ovarian): 0.79 µM
- GI50 (PC-3 prostate): 0.23 µM
- GI50 (RPMI-8226 leukemia): 3.75 µM
- TGI (RPMI-8226 leukemia): > 58.3 µM
- GI50 (RXF 393 renal): 0.154 µM
- TGI (RXF 393 renal): 0.351 µM
- GI50 (SF-268 CNS): 0.305 µM
- TGI (SF-268 CNS): 1.7 µM
- GI50 (SF-295 CNS): 0.234 µM
- TGI (SF-295 CNS): 7.76 µM
- GI50 (SF-539 CNS): 0.202 µM
- TGI (SF-539 CNS): 0.447 µM
- GI50 (SK-MEL-2 melanoma): 0.184 µM
- TGI (SK-MEL-2 melanoma): 0.35 µM
- GI50 (SK-MEL-28 melanoma): 0.389 µM
- TGI (SK-MEL-28 melanoma): 1.31 µM
- GI50 (SK-MEL-5 melanoma): 0.209 µM
- TGI (SK-MEL-5 melanoma): 0.499 µM
- GI50 (SK-OV-3 ovarian): 0.415 µM
- TGI (SK-OV-3 ovarian): 2.17 µM
- GI50 (SN12C renal): 0.299 µM
- TGI (SN12C renal): 1.2 µM
- GI50 (SNB-19 CNS): 0.346 µM
- TGI (SNB-19 CNS): 2.46 µM
- GI50 (SNB-75 CNS): 0.241 µM
- TGI (SNB-75 CNS): 1.25 µM
- GI50 (SR leukemia): 0.0647 µM
- TGI (SR leukemia): > 100 µM
- GI50 (T-47D breast): 0.506 µM
- TGI (T-47D breast): 5.69 µM
- GI50 (TK-10 renal): 0.429 µM
- GI50 (U251 CNS): 0.113 µM
- TGI (U251 CNS): 19.9 µM
- GI50 (UACC-257 melanoma): 0.647 µM
- TGI (UACC-257 melanoma): 3.97 µM
- GI50 (UACC-62 melanoma): 0.198 µM
- TGI (UACC-62 melanoma): 0.429 µM
- GI50 (UO-31 renal): 0.186 µM
- TGI (UO-31 renal): 0.549 µM
